# “Also recorded” adds a separate entry of the source.
# Columns and labels:
# [1] = Analysis of PEGylation reaction by DLS, ethanolamine challenge of the Co linkage; assay type: physicochemical
# Procedure: While sonicating (Branson, model #2510), human transferrin (0.5 mL of a 1 mg/mL aqueous solution, Sigma-Aldrich, cat. #T0665-50MG, lot #SLBC […]) was added. The solution had no discernible color and was allowed to stand undisturbed for 15 min. Dynamic light scattering (DLS, Microtrac Nanotrac Ultra) was used to measure particle size where the volume average particle size was 13.6 nm (standard deviation=4.2 nm). Hydrogen peroxide (20 μL of a 30% solution, Mallinckrodt AR, cat. #5240, lot #5240Y23470) was added while sonicating and the solution was thoroughly mixed by pipetting. The solution became faintly yellow but with no turbity. The solution was allowed to stand undisturbed for 30 min. Analysis of PEGylation reaction by DLS. The average diameter of both human transferrin (6.8 nm, SD=1.8 nm) and H2N-PEG-COOH (4.8 nm, SD=1.2 nm) were measured by DLS (FIG. 5). […] Addition of ethanolamine (50 mM) at this point led to a decrease in particle size back to 6.4 nm (SD=2.0) thereby degrading the prodrug linkage due to facile exchange of the Co amino ligands.
# SNU-5 cells = assay: Nanoparticle uptake by image-based flow cytometry; assay type: cell-based; conditions: for High uptake (red), percentage of cells / Low uptake (blue), percentage of cells / No uptake (green), percentage of cells: SNU-5, 8 h incubation, 100 μg/mL
# Procedure: An Amnis FlowSight image-based flow cytometer equipped with a 488 nm (60 mW) and Side Scatter (7.85 mW) (EMD Millipore; Seattle, Wash.) was used to analyze cell samples. The FlowSight uses a CCD camera system to simultaneously collect both quantitative fluorescence and image data. For uptake studies, SNU-5 cells were incubated with Co-Alb-FITC NPs in the presence or absence of a commonly used inhibitor of macropinocytosis, 5-(N-ethyl-N-isopropyl)amiloride (EIPA), followed by fixation, and analysis via image-based flow cytometry.
# SNU-5 cells were cultured at 37° C. and 5% CO2 in IMDM medium supplemented with 20% fetal bovine serum at cell densities between 1×10^5 and 1×10^6 cells/mL, and Jurkat cells were cultured at 37° C. and 5% CO2 in RPMI-1640 medium supplemented with 10% fetal bovine serum at cell densities between 1×10^5 and 1×10^6 cells/mL. For nanoparticle uptake experiments, cells were transferred to serum-starved IMDM or RPMI-1640 medium (0.1% FBS) and incubated at 37° C. and 5% CO2 for 10-16 h prior to dosing with nanoparticles. Cells (2 mL, 500,000 cells/mL) were incubated with the desired nanoparticle or control particle solution (100 μg/mL) with or without added EIPA for the times indicated. Cells were then washed twice with PBS, fixed for 12 min in 3.7% formaldehyde in PBS, washed twice with PBS, stained with NucBlue® Fixed Cell ReadyProbes® Reagent, and then washed twice more with PBS. Samples were either analyzed immediately or stored at 4° C. in the dark until analysis.
compound,measurement,setting,value
transferrin-PEG conjugate,Particle size after addition of ethanolamine,"[1]; ethanolamine 50 mM, not oxidized (Co(II))",6.4 nm
same,Average diameter after addition of ethanolamine,[1]; oxidized 30 min with H2O2 (Co(III)) before ethanolamine,18.3 nm
FITC-Alb only,"High uptake (red), percentage of cells",SNU-5 cells; EIPA 0 μM,13.9%
same,"Low uptake (blue), percentage of cells",SNU-5 cells; EIPA 0 μM,45.4%
same,"No uptake (green), percentage of cells",SNU-5 cells; EIPA 0 μM,40.6%
same,"High uptake (red), percentage of cells",SNU-5 cells; EIPA 75 μM,16.9%
same,"Low uptake (blue), percentage of cells",SNU-5 cells; EIPA 75 μM,11.8%
same,"No uptake (green), percentage of cells",SNU-5 cells; EIPA 75 μM,71.3%
same,Uptake in the presence of EIPA,"SNU-5 cells; SNU-5, free protein 100 μg/mL, no NPs",reduction in uptake
"CCN(c1nc(N)c(C(=O)N=C(N)N)nc1Cl)C(C)C [EIPA, 5-(N-ethyl-N-isopropyl)amiloride]",Cell viability in the uptake experiment,"SNU-5 cells; SNU-5, 100 μM EIPA",slight decrease in cell viability
same,Effect on uptake of Co-Alb-FITC NPs,"SNU-5 cells; SNU-5, pre-incubation with inhibitor",dramatic reduction in particle uptake; also recorded: reduce uptake in a dose-dependent manner
same,Inhibitory effect on uptake over time,"SNU-5 cells; SNU-5, uptake of Co-Alb-FITC NPs","remained relatively constant over 8 h, but became greatly diminished at 24 h"

# Reference: US20150299238A1, “SYNTHESIS AND USE OF PRODRUG COMPLEXES OF COBALT IN POLYMER THERAPEUTICS” (priority 2014, published 2015)
